From ChEMBL document CHEMBL5113385, “Natural products and synthetic analogues against HIV: A perspective to develop new potential anti-HIV drugs” (Eur J Med Chem, 2022) come the findings set out here.

In brackets after ≈: the same amount, converted by molar mass.

Data set [1] can be described thus: Inhibition of HIV-1 gp41 six-helix bundle formation incubated with N36 for 30 mins followed by incubation with C34 peptide for 30 mins by sandwich ELISA. Type of data set: functional, Human immunodeficiency virus 1.
For another data set, the system named is MT4. As to the kind of experiment: Cytotoxicity against human MT4 cells assessed as reduction in cell viability incubated for 5 days by MTT assay. In kind it is functional. To be noted: MT4, 120 h, time 5 day. (In general: Formazan colour is commonly taken as a measure of viable cells.)
For data set [2], the system named is Human immunodeficiency virus 1. Description: Antiviral activity against HIV-1 E138K mutant infected in human MT4 cells assessed as reduction in viral replication incubated for 5 days by MTT assay. In kind it is functional, organism-based. To be noted: Human immunodeficiency virus 1, E138K mutant, MT4, 120 h.
Data set [3] concerns Human immunodeficiency virus 1. As to the kind of experiment: Antiviral activity against HIV-1 IIIB infected in human MT4 cells assessed as reduction in virus-induced cytopathic effect incubated for 5 days by MTT assay. Type of data set: functional, organism-based. Particulars: Human immunodeficiency virus 1, IIIB, MT4, 120 h. (In general: Cytopathic effects are the visible damage that an infection or toxin causes in cultured cells.)

Data set [4] is described as follows: Selectivity index, ratio of CC50 for human MT4 cells to EC50 for HIV-1 IIIB infected in human MT4 cells. Type of data set: toxicity, cell-based. Particulars: MT4 cells (uninfected, and infected with HIV-1 IIIB), read-out: Ratio CC50/EC50.
Data set [5] is described as follows: Selectivity index, ratio of CC50 for human MT2 cells to EC50 for HIV-1 IIIB infected in human MT2 cells. Type of data set: toxicity, cell-based. To be noted: MT2 cells (uninfected, and infected with HIV-1 IIIB), read-out: Ratio CC50/EC50.
The subject of data set [6] is Human immunodeficiency virus 1. Description: Antiviral activity against HIV-1 IIIB infected in human MT2 cells assessed as reduction in viral replication. In kind it is functional, organism-based. To be noted: Human immunodeficiency virus 1, IIIB.
Data set [7] in a line: Selectivity index, ratio of CC50 for human C8166 cells to EC50 for HIV IIIB infected in human C8166 cells. In kind it is toxicity, cell-based. Particulars: C8166 cells (uninfected, and infected with HIV IIIB), read-out: Ratio CC50/EC50.
Data set [8] concerns Human immunodeficiency virus 1. As to the kind of experiment: Antiviral activity against wild-type HIV-1 IIIB infected in human C8166 cells assessed as reduction in virus-induced cytopathic effect incubated for 3 days by MTT assay. In kind it is functional, organism-based. Particulars: Human immunodeficiency virus 1, IIIB, C8166, 72 h.
For data set [9], the system named is Human immunodeficiency virus 1. As to the kind of experiment: Antiviral activity against patient-derived wild-type HIV-1 infected in human CEM-T4 cells assessed as inhibition of viral replication preincubated for 24 hrs followed by viral infection measured after 7 days by ELISA. To be noted: Human immunodeficiency virus 1, CEM-T4. Type of data set: functional, organism-based. For orientation: In an ELISA, binding on a coated surface is turned into a signal by an enzyme label.

In data set [10] the test system is Human immunodeficiency virus 1. As to the kind of experiment: Antiviral activity against HIV-1 NL4-3 infected in human TZM-bl cells assessed as reduction in virus-induced cytopathic effect incubated for 2 days by Bright Glo assay. In kind it is functional, organism-based. To be noted: Human immunodeficiency virus 1, NL4-3, TZM-bl, 48 h.
In another data set the test system is Influenza A virus. As to the kind of experiment: Antiviral activity against Influenza virus A/Puerto Rico/8/34 (H1N1) infected in MDCK cells assessed as reduction in viral titer preincubated for 1 hr followed by viral infection at MOI of 0.01 for 24 hrs and subsequent addition of culture medium and incubated for 48 hrs followed by addition of chicken erythrocytes measured after 40 mins by agglutination method. In kind it is functional, organism-based.

As to `Cc1cc(/C=C2\SC(=S)N(Cc3ccccc3C(F)(F)F)C2=O)c(C)n1-c1ccc(O)c(C(=O)O)c1`, in [1], half-maximal inhibition (IC50) was put at 23.1 µM. Take `N#Cc1ccc(Nc2nccc(/C(=N\O)c3ccc(-c4ccc(F)cc4)cc3F)n2)cc1`: the cytotoxic concentration (CC50) – broadly, the concentration giving 50% cytotoxicity – in the data set on MT4 is above 292 µM. Further, the IC50 – broadly, the concentration that inhibits the measured activity by half – was 27 nM in [2] and 12.1 µM in data set [3]. Further, the selectivity ratio in data set [4] was above 24100. For the molecule `Cc1cccc2cc(/C=C3\NC(=O)N(Cc4ccccc4)C3=O)c(Cl)nc12`, the selectivity ratio in data set [5] came to 117. In addition, the IC50 in [6] came out at 148 nM.

Regarding `CCc1c(CC2CCCCC2)nc(SCc2cc(-c3ccc(O)cc3)[nH]n2)[nH]c1=O`, the selectivity ratio in data set [7] was 25.5. Besides, the IC50 in data set [8] was 3.8 nM. As for `C=C(CP(=O)(OCC)OCC)[C@@H]1CC[C@]2(C(=O)O)CC[C@]3(C)[C@H](CC[C@@H]4[C@@]5(C)CC[C@H](OC(=O)CC(C)(C)C(=O)O)C(C)(C)[C@@H]5CC[C@]43C)[C@@H]12`, the IC50 in data set [9] was 300 nM. For `COc1ccc(N(C)C(=O)[C@H](Cc2cc(F)cc(F)c2)NC(=O)c2cccc(-c3cn(Cc4ccc([N+](=O)[O-])cc4)nn3)c2)cc1`, the IC50 in data set [10] came to 2130 nM. Take `Cc1cn([C@H]2C[C@H](n3cc(Cn4nnnc4CC(=O)N(C)C)nn3)[C@@H](CO)O2)c(=O)[nH]c1=O`: in the data set on Influenza A virus, the IC50 was 39.6 µg/mL (≈ 86 µM).
